According to patent publication US20250114486A1, “MARKED FATTY ACID DERIVATIVE, PRECURSOR COMPOUND THEREOF, AND USE THEREOF IN CONTRAST AGENT” (BEIJING NORMAL UNIVERSITY, priority 2022, published 2025):

Assay: In vivo biodistribution in female Kunming mice
Settings: for Biodistribution: Large Intestine / Biodistribution: Small Intestine / Biodistribution: Stomach: unit % ID; for absolute myocardial uptake (assessment): after tail vein injection
Experimental: Female Kunming mice (20-22 g, n=3) were fasted for 12 h before the experiment, and the purified radioactive ^99mTc complex 130 was dissolved in a normal saline (containing 10% ethanol) solution (about 100 μCi/mL). Female Kunming mice were injected with 100 μL of the above solution through the tail vein, and the mice were killed by cervical dislocation at 5, 15, 30, 60, and 120 min post-injection, respectively. Blood, brain, heart, liver, spleen, lung, kidney, muscle, bone, large intestine, small intestine, stomach and tail were collected, weighed and counted, and the count distribution of each tissue and organ was calculated (unit: % ID/g, the unit of large intestine, small intestine and stomach was % ID), and the data were the mean±standard deviation of three mice in each time phase. At the same time, 100 μL of the above solution was diluted to 10 mL, which was used as the % ID without deducting the tail count.
The corresponding radioactive ^99mTc complex 158 as the typical compounds of the general formula V in this application was selected to conduct an in vivo biodistribution study in female Kunming mice. The specific experimental method was shown in the experimental method of “In vivo biodistribution study of radioactive ^99mTc complex 130 in female Kunming mice” in Example 7 above.

Structure (SMILES): COC(C)(C)C[N+]#[C][99Tc-5]([C]#[N+]CC(C)(C)OC)([C]#[N+]CC(C)(C)OC)([C]#[N+]CC(C)(C)OC)([C]#[N+]CC(C)(C)OC)[C]#[N+]CC(C)(C)OCCCS(=O)(=O)CCCCCSCCCCC(=O)O [^99mTc complex 130]
- Biodistribution: Blood (5 min post-injection): 0.54 ± 0.07 ID %/g
- Biodistribution: Bone (5 min post-injection): 0.54 ± 0.10 ID %/g
- Biodistribution: Brain (5 min post-injection): 0.04 ± 0.00 ID %/g
- Biodistribution: Heart (5 min post-injection): 2.14 ± 0.25 ID %/g
- Biodistribution: Kidney (5 min post-injection): 9.64 ± 0.08 ID %/g
- Biodistribution: Liver (5 min post-injection): 53.13 ± 4.86 ID %/g
- Biodistribution: Lungs (5 min post-injection): 0.84 ± 0.09 ID %/g
- Biodistribution: Muscle (5 min post-injection): 0.75 ± 0.06 ID %/g
- Biodistribution: Spleen (5 min post-injection): 0.67 ± 0.04 ID %/g
- Heart-to-Blood ratio (5 min post-injection): 3.96
- Heart-to-Liver ratio (5 min post-injection): 0.04
- Heart-to-Lungs ratio (5 min post-injection): 2.55
- Heart-to-Muscle ratio (5 min post-injection): 2.85
- Biodistribution: Large Intestine (5 min post-injection): 0.53 ± 0.10 % ID
- Biodistribution: Small Intestine (5 min post-injection): 4.32 ± 0.25 % ID
- Biodistribution: Stomach (5 min post-injection): 0.17 ± 0.02 % ID
- Biodistribution: Blood (15 min post-injection): 0.24 ± 0.01 ID %/g
- Biodistribution: Bone (15 min post-injection): 0.76 ± 0.13 ID %/g
- Biodistribution: Brain (15 min post-injection): 0.03 ± 0.01 ID %/g
- Biodistribution: Heart (15 min post-injection): 1.92 ± 0.18 ID %/g
- Biodistribution: Kidney (15 min post-injection): 7.89 ± 0.19 ID %/g
- Biodistribution: Liver (15 min post-injection): 42.04 ± 2.91 ID %/g
- Biodistribution: Lungs (15 min post-injection): 0.76 ± 0.03 ID %/g
- Biodistribution: Muscle (15 min post-injection): 0.67 ± 0.07 ID %/g
- Biodistribution: Spleen (15 min post-injection): 0.50 ± 0.03 ID %/g
- Heart-to-Blood ratio (15 min post-injection): 8.00
- Heart-to-Liver ratio (15 min post-injection): 0.05
- Heart-to-Lungs ratio (15 min post-injection): 2.53
- Heart-to-Muscle ratio (15 min post-injection): 2.87
- Biodistribution: Large Intestine (15 min post-injection): 0.82 ± 0.34 % ID
- Biodistribution: Small Intestine (15 min post-injection): 20.74 ± 0.83 % ID
- Biodistribution: Stomach (15 min post-injection): 0.26 ± 0.01 % ID
- Biodistribution: Blood (30 min post-injection): 0.12 ± 0.04 ID %/g
- Biodistribution: Bone (30 min post-injection): 0.33 ± 0.12 ID %/g
- Biodistribution: Brain (30 min post-injection): 0.02 ± 0.01 ID %/g
- Biodistribution: Heart (30 min post-injection): 1.54 ± 0.38 ID %/g
- Biodistribution: Kidney (30 min post-injection): 2.51 ± 0.58 ID %/g
- Biodistribution: Liver (30 min post-injection): 18.08 ± 0.30 ID %/g
- Biodistribution: Lungs (30 min post-injection): 0.28 ± 0.05 ID %/g
- Biodistribution: Muscle (30 min post-injection): 0.59 ± 0.16 ID %/g
- Biodistribution: Spleen (30 min post-injection): 0.31 ± 0.05 ID %/g
- Heart-to-Blood ratio (30 min post-injection): 12.83
- Heart-to-Liver ratio (30 min post-injection): 0.09
- Heart-to-Lungs ratio (30 min post-injection): 5.50
- Heart-to-Muscle ratio (30 min post-injection): 2.61
- Biodistribution: Large Intestine (30 min post-injection): 1.56 ± 0.16 % ID
- Biodistribution: Small Intestine (30 min post-injection): 29.63 ± 3.26 % ID
- Biodistribution: Stomach (30 min post-injection): 0.12 ± 0.04 % ID
- Biodistribution: Blood (60 min post-injection): 0.08 ± 0.01 ID %/g
- Biodistribution: Bone (60 min post-injection): 0.15 ± 0.03 ID %/g
- Biodistribution: Brain (60 min post-injection): 0.02 ± 0.00 ID %/g
- Biodistribution: Heart (60 min post-injection): 1.37 ± 0.26 ID %/g
- Biodistribution: Kidney (60 min post-injection): 1.20 ± 0.10 ID %/g
- Biodistribution: Liver (60 min post-injection): 15.12 ± 1.7 ID %/g
- Biodistribution: Lungs (60 min post-injection): 0.19 ± 0.01 ID %/g
- Biodistribution: Muscle (60 min post-injection): 0.43 ± 0.09 ID %/g
- Biodistribution: Spleen (60 min post-injection): 0.14 ± 0.03 ID %/g
- Heart-to-Blood ratio (60 min post-injection): 17.13
- Heart-to-Liver ratio (60 min post-injection): 0.09
- Heart-to-Lungs ratio (60 min post-injection): 7.21
- Heart-to-Muscle ratio (60 min post-injection): 3.19
- Biodistribution: Large Intestine (60 min post-injection): 16.13 ± 5.3 % ID
- Biodistribution: Small Intestine (60 min post-injection): 26.18 ± 3.9 % ID
- Biodistribution: Stomach (60 min post-injection): 0.29 ± 0.05 % ID
- Biodistribution: Blood (120 min post-injection): 0.04 ± 0.01 ID %/g
- Biodistribution: Bone (120 min post-injection): 0.09 ± 0.01 ID %/g
- Biodistribution: Brain (120 min post-injection): 0.02 ± 0.01 ID %/g
- Biodistribution: Heart (120 min post-injection): 1.27 ± 0.03 ID %/g
- Biodistribution: Kidney (120 min post-injection): 0.30 ± 0.04 ID %/g
- Biodistribution: Liver (120 min post-injection): 3.74 ± 0.98 ID %/g
- Biodistribution: Lungs (120 min post-injection): 0.19 ± 0.05 ID %/g
- Biodistribution: Muscle (120 min post-injection): 0.38 ± 0.10 ID %/g
- Biodistribution: Spleen (120 min post-injection): 0.13 ± 0.02 ID %/g
- Heart-to-Blood ratio (120 min post-injection): 31.75
- Heart-to-Liver ratio (120 min post-injection): 0.34
- Heart-to-Lungs ratio (120 min post-injection): 6.68
- Heart-to-Muscle ratio (120 min post-injection): 3.34
- Biodistribution: Large Intestine (120 min post-injection): 34.11 ± 4.52 % ID
- Biodistribution: Small Intestine (120 min post-injection): 7.50 ± 2.45 % ID
- Biodistribution: Stomach (120 min post-injection): 0.17 ± 0.12 % ID
- absolute myocardial uptake (assessment): relatively low

Structure (SMILES): COC(C)(C)C[N+]#[C][99Tc-5]([C]#[N+]CC(C)(C)OC)([C]#[N+]CC(C)(C)OC)([C]#[N+]CC(C)(C)OC)([C]#[N+]CC(C)(C)OC)[C]#[N+]CC(C)(C)OCCCS(=O)(=O)CCCCCS(=O)(=O)CCCSCCCCC(=O)O [^99mTc complex 158]
- heart-to-blood ratios (assessment): moderate level
- heart-to-lungs ratios (assessment): moderate level
- myocardial clearance: fast
- Biodistribution: Blood (5 min post-injection): 13.21 ± 2.84 ID %/g
- Biodistribution: Bone (5 min post-injection): 2.31 ± 0.36 ID %/g
- Biodistribution: Brain (5 min post-injection): 0.39 ± 0.14 ID %/g
- Biodistribution: Heart (5 min post-injection): 4.19 ± 0.10 ID %/g
- Biodistribution: Kidney (5 min post-injection): 7.80 ± 1.46 ID %/g
- Biodistribution: Liver (5 min post-injection): 37.80 ± 6.80 ID %/g
- Biodistribution: Lungs (5 min post-injection): 5.91 ± 0.89 ID %/g
- Biodistribution: Muscle (5 min post-injection): 1.82 ± 0.16 ID %/g
- Biodistribution: Spleen (5 min post-injection): 1.55 ± 0.01 ID %/g
- Heart-to-Blood ratio (5 min post-injection): 0.32
- Heart-to-Liver ratio (5 min post-injection): 0.11
- Heart-to-Lungs ratio (5 min post-injection): 0.71
- Biodistribution: Large Intestine (5 min post-injection): 1.04 ± 0.37 % ID
- Biodistribution: Small Intestine (5 min post-injection): 5.39 ± 0.84 % ID
- Biodistribution: Stomach (5 min post-injection): 0.54 ± 0.19 % ID
- Biodistribution: Blood (15 min post-injection): 5.47 ± 0.09 ID %/g
- Biodistribution: Bone (15 min post-injection): 1.04 ± 0.38 ID %/g
- Biodistribution: Brain (15 min post-injection): 0.14 ± 0.05 ID %/g
- Biodistribution: Heart (15 min post-injection): 1.63 ± 0.02 ID %/g
- Biodistribution: Kidney (15 min post-injection): 4.59 ± 0.68 ID %/g
- Biodistribution: Liver (15 min post-injection): 33.35 ± 0.37 ID %/g
- Biodistribution: Lungs (15 min post-injection): 2.69 ± 0.70 ID %/g
- Biodistribution: Muscle (15 min post-injection): 1.10 ± 0.22 ID %/g
- Biodistribution: Spleen (15 min post-injection): 0.86 ± 0.28 ID %/g
- Heart-to-Blood ratio (15 min post-injection): 0.30
- Heart-to-Liver ratio (15 min post-injection): 0.05
- Heart-to-Lungs ratio (15 min post-injection): 0.61
- Biodistribution: Large Intestine (15 min post-injection): 0.67 ± 0.15 % ID
- Biodistribution: Small Intestine (15 min post-injection): 16.67 ± 2.60 % ID
- Biodistribution: Stomach (15 min post-injection): 0.46 ± 0.13 % ID
- Biodistribution: Blood (30 min post-injection): 1.20 ± 0.1 ID %/g
- Biodistribution: Bone (30 min post-injection): 0.37 ± 0.1 ID %/g
- Biodistribution: Brain (30 min post-injection): 0.1 ± 0.04 ID %/g
- Biodistribution: Heart (30 min post-injection): 0.91 ± 0.11 ID %/g
- Biodistribution: Kidney (30 min post-injection): 2.22 ± 0.2 ID %/g
- Biodistribution: Liver (30 min post-injection): 22.5 ± 3.2 ID %/g
- Biodistribution: Lungs (30 min post-injection): 0.9 ± 0.04 ID %/g
- Biodistribution: Muscle (30 min post-injection): 0.46 ± 0.1 ID %/g
- Biodistribution: Spleen (30 min post-injection): 0.55 ± 0.1 ID %/g
- Heart-to-Blood ratio (30 min post-injection): 0.76
- Heart-to-Liver ratio (30 min post-injection): 0.04
- Heart-to-Lungs ratio (30 min post-injection): 1.00
- Biodistribution: Large Intestine (30 min post-injection): 1.25 ± 0.1 % ID
- Biodistribution: Small Intestine (30 min post-injection): 20.9 ± 4.6 % ID
- Biodistribution: Stomach (30 min post-injection): 0.25 ± 0.1 % ID
- Biodistribution: Blood (60 min post-injection): 0.42 ± 0.03 ID %/g
- Biodistribution: Bone (60 min post-injection): 0.24 ± 0.04 ID %/g
- Biodistribution: Brain (60 min post-injection): 0.06 ± 0.01 ID %/g
- Biodistribution: Heart (60 min post-injection): 0.67 ± 0.09 ID %/g
- Biodistribution: Kidney (60 min post-injection): 1.20 ± 0.10 ID %/g
- Biodistribution: Liver (60 min post-injection): 22.8 ± 1.20 ID %/g
- Biodistribution: Lungs (60 min post-injection): 0.50 ± 0.02 ID %/g
- Biodistribution: Muscle (60 min post-injection): 0.31 ± 0.06 ID %/g
- Biodistribution: Spleen (60 min post-injection): 0.24 ± 0.06 ID %/g
- Heart-to-Blood ratio (60 min post-injection): 1.60
- Heart-to-Liver ratio (60 min post-injection): 0.03
- Heart-to-Lungs ratio (60 min post-injection): 1.34
- Biodistribution: Large Intestine (60 min post-injection): 1.31 ± 0.27 % ID
- Biodistribution: Small Intestine (60 min post-injection): 34.24 ± 3.12 % ID
- Biodistribution: Stomach (60 min post-injection): 0.38 ± 0.05 % ID
- Biodistribution: Blood (120 min post-injection): 0.26 ± 0.01 ID %/g
- Biodistribution: Bone (120 min post-injection): 0.15 ± 0.05 ID %/g
- Biodistribution: Brain (120 min post-injection): 0.03 ± 0.02 ID %/g
- Biodistribution: Heart (120 min post-injection): 0.52 ± 0.01 ID %/g
- Biodistribution: Kidney (120 min post-injection): 0.80 ± 0.07 ID %/g
- Biodistribution: Liver (120 min post-injection): 13.81 ± 0.59 ID %/g
- Biodistribution: Lungs (120 min post-injection): 0.32 ± 0.06 ID %/g
- Biodistribution: Muscle (120 min post-injection): 0.21 ± 0.03 ID %/g
- Biodistribution: Spleen (120 min post-injection): 0.15 ± 0.07 ID %/g
- Heart-to-Blood ratio (120 min post-injection): 2.00
- Heart-to-Liver ratio (120 min post-injection): 0.04
- Heart-to-Lungs ratio (120 min post-injection): 1.63
- Biodistribution: Large Intestine (120 min post-injection): 1.02 ± 0.22 % ID
- Biodistribution: Small Intestine (120 min post-injection): 19.83 ± 1.14 % ID
- Biodistribution: Stomach (120 min post-injection): 0.47 ± 0.10 % ID
- absolute myocardial uptake (assessment): low
